In patent US20170368082A1, “FORMULATIONS OF BRINCIDOFOVIR” (priority 2016, published 2017):

Experiment: Tissue distribution by quantitative whole-body autoradiography (QWBA)
Type: in vivo, male Sprague Dawley and Long-Evans rats
Details: for Concentration of radioactivity: SD rat, 15 mg/kg IV
Protocol: The study utilized 4 groups of male SD rats (albino), and 3 groups of male LE rats (pigmented); a total of 39 rats. All animals were obtained from Hilltop Lab Animals, Inc. (Scottdale, Pa.). […] Rats in Group 5 were administered a single 2-h IV infusion of [^14C]brincidofovir at a target dose of 2 mg/kg. […] Three dosing formulations (one for high dose IV, one for low dose IV, and one for PO dose) were prepared at QPS on the day of dosing. The IV formulation for Groups 1, 2, 3, and 4 contained a vehicle of 10 mM sodium phosphate buffer in 5% dextrose solution at pH 8.0(±0.1).
Each animal, at their respective termination time points, was euthanized for QWBA analysis immediately after blood collection. One rat per time point per Group was euthanized as listed below.
The blood samples were maintained on wet ice (approximately 4° C.) and then centrifuged to obtain plasma within 1 h of the blood collection time. Centrifuge settings were recorded in the study notebook. Duplicate aliquots of plasma (0.050 mL) were analyzed for radioactivity using direct counting by LSC, and residual plasma was stored at approximately −70° C. and was saved for possible future analysis under a separate study protocol. Residual red blood cells were discarded as radioactive waste.
The pinna, distal limbs, hair, and tail were removed from each frozen carcass and each frozen carcass was embedded in an aqueous suspension of approximately 2% (w/v) carboxymethylcellulose and frozen into a block. The blocks were stored at approximately −20° C. prior to sectioning. Each blocked carcass was mounted on the object stage of a cryomicrotome (Leica CM3600 Cryomacrocut, Nussloch, Germany and Vibratome 9800, St. Louis, Mo.) maintained at approximately −20° C. and internal standards (3), which were plasma fortified with [^14C]-glucose at one concentration (approximately 0.05 μCi/mL), were placed into the frozen blocks, prior to sectioning, and were used for section thickness quality control. A number of whole-body sections (approximately 40 μm thick) were taken in the sagittal plane at various levels of interest using a whole-body cryomicrotome set at −20° C. Sagittal sections (20-50 μm thick) of frozen carcasses were exposed to phosphor imaging plates. Regions of images in tissues were converted to concentrations using standards. All of the major tissues, organs, and biological fluids were represented.
Tissue concentration data was determined for the following tissues and/or contents: adipose (brown and white), adrenal gland, bile (in duct), blood (cardiac), bone, bone marrow, brain (cerebrum, cerebellum, medulla), cecum (and contents), large intestine (and contents), epididymis, esophagus, eye (uvea and lens), Harderian gland, heart, kidney (cortex and medulla), liver, lung, lymph node, pancreas, pituitary gland, prostate gland, salivary gland, seminal vesicles, skeletal muscle, skin (pigmented and non-pigmented), small intestine (and contents), stomach (gastric mucosa and contents), spleen, spinal cord, testis, thymus, thyroid, and urinary bladder (and contents).
The imaging plate and sections were placed in light-tight exposure cassettes, in a copper-lined lead safe, for a 4-day exposure at room temperature. […] Quantification was performed by image densitometry using MCD image analysis software (v. 7.0, Interfocus Imaging Ltd) and a standard curve constructed from the integrated response [i.e., Molecular Dynamics Counts per square millimeter (MDC/mm^2)] and the nominal concentrations of the ^14C-calibration standards. The concentrations of radioactivity were expressed as the μg equivalents of [^14C]brincidofovir per gram sample (μg equiv/g). A lower limit of quantification (LLOQ) was applied to the data (See section 6.7.4).
Tissue concentrations that fell below the LLOQ were identified as being below the quantification limit (BQL). Tissue areas that were not visualized on autoradiographic images were identified as no sample (NS) and reported as BQL.

SMILES: CCCCCCCCCCCCCCCCOCCCOP(=O)(O)CO[C@H](CO)Cn1ccc(N)nc1=O [[^14C]brincidofovir]
- Concentration at Tmax: kidney medulla (Group 6 SD, 15 mg/kg PO): 7.9 μg equiv/g
- Concentration at Tmax: liver (Group 6 SD, 15 mg/kg PO): 20.6 μg equiv/g
- Concentration at Tmax: small intestine (Group 6 SD, 15 mg/kg PO): 236.3 μg equiv/g
- Concentration at Tmax: stomach (Group 6 SD, 15 mg/kg PO): 11.2 μg equiv/g
- Concentration at Tmax: urinary bladder (Group 6 SD, 15 mg/kg PO): 17.3 μg equiv/g
- Residual concentration in small intestine at 168 h (Group 6 SD, 15 mg/kg PO): 2.7 μg equiv/g
- Highest observed concentration in blood (Group 6 SD, 15 mg/kg PO, 2 h): 0.200 μg equiv/g
- Urinary bladder contents (Group 7, 8 h): 110.9 μg equiv/g
- Concentration of radioactivity, Eye (lens) (Group 7 LE pigmented rats, oral 15 mg/kg, c2-c11 = 0.5, 1, 2, 4, 8, 24, 72, 96, 168, 840 h, LLOQ 0.034): BQL
- Concentration at Tmax: cecum (Group 7 LE, 15 mg/kg PO): 7.6 μg equiv/g
- Concentration at Tmax: kidney cortex (Group 7 LE, 15 mg/kg PO): 17.8 μg equiv/g
- Concentration at Tmax: kidney medulla (Group 7 LE, 15 mg/kg PO): 9.1 μg equiv/g
- Concentration at Tmax: large intestine (Group 7 LE, 15 mg/kg PO): 3.3 μg equiv/g
- Concentration at Tmax: liver (Group 7 LE, 15 mg/kg PO): 36.1 μg equiv/g
- Concentration at Tmax: small intestine (Group 7 LE, 15 mg/kg PO): 458.5 μg equiv/g
- Concentration at Tmax: stomach (Group 7 LE, 15 mg/kg PO): 12.0 μg equiv/g
- Concentration at Tmax: urinary bladder (Group 7 LE, 15 mg/kg PO): 3.7 μg equiv/g
- Highest observed concentration in blood (Group 7 LE, 15 mg/kg PO, 8 h): 1.1 μg equiv/g
- Concentration of radioactivity (Harderian Gland, 2 h): 2.081 μg equiv./g
- Concentration of radioactivity (Harderian Gland, 24 h): 1.278 μg equiv./g
- Concentration of radioactivity (Harderian Gland, 168 h): 0.954 μg equiv./g
- Concentration of radioactivity (Heart, 2 h): 2.540 μg equiv./g
- Concentration of radioactivity (Heart, 24 h): 0.408 μg equiv./g
- Concentration of radioactivity (Heart, 168 h): 0.057 μg equiv./g
- Radioactivity in brain and spinal cord relative to plasma concentration (IV administration): ~20%
- Tissue to plasma ratios (T/P) in liver, kidney and small intestine (IV and oral): > 30
- Small intestine tissue to plasma ratio (IV infusion, 15 mg/kg): 32
- Concentration of radioactivity (Kidney Cortex, 2 h): 106.513 μg equiv./g
- Concentration of radioactivity (Kidney Cortex, 24 h): 32.109 μg equiv./g
- Concentration of radioactivity (Kidney Cortex, 168 h): 0.474 μg equiv./g
- Concentration of radioactivity (Kidney Medulla, 2 h): 33.444 μg equiv./g
- Concentration of radioactivity (Kidney Medulla, 24 h): 4.271 μg equiv./g
- Concentration of radioactivity (Kidney Medulla, 168 h): 0.186 μg equiv./g
- Concentration of radioactivity (Liver, 2 h): 229.371 μg equiv./g
- Concentration of radioactivity (Liver, 24 h): 13.907 μg equiv./g
- Concentration of radioactivity (Liver, 168 h): 0.453 μg equiv./g
- Concentration of radioactivity (Lung, 2 h): 5.675 μg equiv./g
- Concentration of radioactivity (Lung, 24 h): 1.128 μg equiv./g
- Concentration of radioactivity (Lung, 168 h): 0.296 μg equiv./g
- Concentration of radioactivity (Lymph Node, 2 h): 4.055 μg equiv./g
- Concentration of radioactivity (Lymph Node, 24 h): 1.004 μg equiv./g
- Concentration of radioactivity (Lymph Node, 168 h): 0.247 μg equiv./g
- Concentration of radioactivity (Pancreas, 2 h): 1.974 μg equiv./g
- Concentration of radioactivity (Pancreas, 24 h): 0.557 μg equiv./g
- Concentration of radioactivity (Pancreas, 168 h): BQL (BQL = Value is below the LLOQ)
- Concentration of radioactivity (Pituitary Gland, 2 h): 2.793 μg equiv./g
- Concentration of radioactivity (Pituitary Gland, 24 h): 1.021 μg equiv./g
- Concentration of radioactivity (Pituitary Gland, 168 h): 0.257 μg equiv./g
- Concentration of radioactivity (Prostate Gland, 2 h): 2.033 μg equiv./g
- Concentration of radioactivity (Prostate Gland, 24 h): 0.254 μg equiv./g
- Concentration of radioactivity (Prostate Gland, 168 h): 0.051 μg equiv./g
- Concentration of radioactivity (Salivary Gland, 2 h): 2.049 μg equiv./g
- Concentration of radioactivity (Salivary Gland, 24 h): 0.395 μg equiv./g
- Concentration of radioactivity (Salivary Gland, 168 h): 0.047 μg equiv./g
- Concentration of radioactivity (Seminal Vesicles, 2 h): 1.809 μg equiv./g
- Concentration of radioactivity (Seminal Vesicles, 24 h): 1.636 μg equiv./g
- Concentration of radioactivity (Seminal Vesicles, 168 h): 0.817 μg equiv./g
- Concentration of radioactivity (Skeletal Muscle, 2 h): 0.868 μg equiv./g
- Concentration of radioactivity (Skeletal Muscle, 24 h): 0.099 μg equiv./g
- Concentration of radioactivity (Skeletal Muscle, 168 h): BQL (BQL = Value is below the LLOQ)
- Concentration of radioactivity (Skin (non-pigmented), 2 h): 2.277 μg equiv./g
- Concentration of radioactivity (Skin (non-pigmented), 24 h): 0.602 μg equiv./g
- Concentration of radioactivity (Skin (non-pigmented), 168 h): 0.121 μg equiv./g
- Concentration of radioactivity (Spinal Cord, 2 h): 0.437 μg equiv./g
- Concentration of radioactivity (Spinal Cord, 24 h): 0.079 μg equiv./g
- Concentration of radioactivity (Spinal Cord, 168 h): BQL (BQL = Value is below the LLOQ)
- Concentration of radioactivity (Spleen, 2 h): 4.536 μg equiv./g
- Concentration of radioactivity (Spleen, 24 h): 2.244 μg equiv./g
- Concentration of radioactivity (Spleen, 168 h): 0.694 μg equiv./g
- Concentration of radioactivity (Testis, 2 h): 1.647 μg equiv./g
- Concentration of radioactivity (Testis, 24 h): 0.436 μg equiv./g
- Concentration of radioactivity (Testis, 168 h): 0.078 μg equiv./g
- Concentration of radioactivity (Thymus, 2 h): 2.373 μg equiv./g
- Concentration of radioactivity (Thymus, 24 h): 0.556 μg equiv./g
- Concentration of radioactivity (Thymus, 168 h): 0.105 μg equiv./g
- Concentration of radioactivity (Thyroid, 2 h): 2.751 μg equiv./g
- Concentration of radioactivity (Thyroid, 24 h): 0.791 μg equiv./g
- Concentration of radioactivity (Thyroid, 168 h): 0.239 μg equiv./g
- Concentration of radioactivity (Urinary Bladder (contents), 2 h): 47.034 μg equiv./g
- Concentration of radioactivity (Urinary Bladder (contents), 24 h): 21.237 μg equiv./g
- Concentration of radioactivity (Urinary Bladder (contents), 168 h): 0.121 μg equiv./g
- Concentration of radioactivity (Urinary Bladder, 2 h): 35.978 μg equiv./g
- Concentration of radioactivity (Urinary Bladder, 24 h): 2.264 μg equiv./g
- Concentration of radioactivity (Urinary Bladder, 168 h): 0.132 μg equiv./g
- Radioactivity in brain and spinal cord relative to plasma concentration (oral administration): ~5%
- Small intestinal tissue to plasma ratio (T/P) (oral administration, 15 mg/kg): 428
- Residual concentration in small intestine at 168 h (pigmented LE rats, 15 mg/kg PO): 5.9 μg equiv/g
